From patent US10744214B2, “Method of diagnosing and/or monitoring therapy of atherosclerosis” (STC.UNM, priority 2015, dated 2020) come the findings set out here.

Data set [1] in a line: Ex vivo biodistribution of [111In] In-DANBIRT post tail vein injection in ApoE-/- mice. As to the method: • Animals were imaged for ˜75 minutes 3 hrs post tail vein injection of ˜700 uCi (˜25.9 Mbq) of ^111In-DANBIRT • Atorvastatin was administered in the drinking water and PPAR-Delta agonist (GW1516) was incorporated into food pellets by diet manufacturing company. • Organ and serum collection for bio distribution and lipid levels and sub particles size analysis was performed after last imaging time point
Upon completion of 8 weeks on normal or HFD, mice were euthanized 3 hours post-injection of 700 μCi of [^111In] In-DANBIRT via tail vein; organs were harvested for weight assessment and [^111In] In-DANBIRT uptake using an Automatic Wizard 2 Gamma counter (Perkin Elmer). Organs collected were: tail, whole blood, aorta (from aortic arch to thoracic aorta), carotids (front aortic arch to bifurcation), heart, liver, muscle and adipose tissue. Whole blood was collected with direct cardiac puncture of right ventricle using a 24-gauge needle of right ventricle with a heparinized syringe and centrifuged for 15 minutes at 1000 g at 4° C. Serum, erythrocytes (RBC) and leukocytes (WBC) containing isolated samples were collected and measured for [^111In] In-DANBIRT uptake using a gamma counter. Uptake was decay-corrected and percent-injected activity per gram (% IA/gr) was determined for each mouse.

In data set [2] the target is T1, LFA-1 (Mus musculus, UniProt P24063).
T1 construct: presence of inflammatory LFA-1 in immune and cardiovascular tissues; from tissue; host or cells: living or euthanized male ApoE-/- C57BL/6 mice: heart, aortic arch, descending aorta, carotids, thymus
T1 sequence (P24063 24-1162): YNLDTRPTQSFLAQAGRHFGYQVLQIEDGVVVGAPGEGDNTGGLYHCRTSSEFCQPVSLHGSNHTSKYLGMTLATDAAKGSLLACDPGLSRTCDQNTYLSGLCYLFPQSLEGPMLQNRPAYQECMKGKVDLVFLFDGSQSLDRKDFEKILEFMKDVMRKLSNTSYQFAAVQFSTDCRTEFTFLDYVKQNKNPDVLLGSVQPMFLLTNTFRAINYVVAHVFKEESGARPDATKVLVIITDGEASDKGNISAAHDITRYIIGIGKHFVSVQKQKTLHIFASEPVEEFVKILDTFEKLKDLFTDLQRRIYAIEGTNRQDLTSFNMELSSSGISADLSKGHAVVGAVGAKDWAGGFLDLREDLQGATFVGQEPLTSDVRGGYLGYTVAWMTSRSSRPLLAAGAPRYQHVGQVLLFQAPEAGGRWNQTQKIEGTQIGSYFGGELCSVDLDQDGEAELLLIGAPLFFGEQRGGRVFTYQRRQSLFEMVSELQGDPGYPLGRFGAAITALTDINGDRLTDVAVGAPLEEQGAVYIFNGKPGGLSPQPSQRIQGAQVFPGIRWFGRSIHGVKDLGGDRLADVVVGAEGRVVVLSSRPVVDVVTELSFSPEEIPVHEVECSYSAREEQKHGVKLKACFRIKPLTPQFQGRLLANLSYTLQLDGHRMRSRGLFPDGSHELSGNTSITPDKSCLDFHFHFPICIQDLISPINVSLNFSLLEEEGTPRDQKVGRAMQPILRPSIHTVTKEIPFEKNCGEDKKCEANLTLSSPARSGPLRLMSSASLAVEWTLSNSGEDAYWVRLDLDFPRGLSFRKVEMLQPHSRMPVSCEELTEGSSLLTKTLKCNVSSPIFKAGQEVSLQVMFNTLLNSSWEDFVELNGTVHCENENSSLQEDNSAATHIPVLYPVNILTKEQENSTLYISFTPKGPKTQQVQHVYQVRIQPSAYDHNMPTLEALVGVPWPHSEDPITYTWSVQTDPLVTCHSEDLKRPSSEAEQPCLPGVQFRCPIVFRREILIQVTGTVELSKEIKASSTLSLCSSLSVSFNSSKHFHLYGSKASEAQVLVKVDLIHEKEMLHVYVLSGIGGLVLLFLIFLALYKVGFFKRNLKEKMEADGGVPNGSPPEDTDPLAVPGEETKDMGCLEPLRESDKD
T1 sequence (P11835 24-771 partner): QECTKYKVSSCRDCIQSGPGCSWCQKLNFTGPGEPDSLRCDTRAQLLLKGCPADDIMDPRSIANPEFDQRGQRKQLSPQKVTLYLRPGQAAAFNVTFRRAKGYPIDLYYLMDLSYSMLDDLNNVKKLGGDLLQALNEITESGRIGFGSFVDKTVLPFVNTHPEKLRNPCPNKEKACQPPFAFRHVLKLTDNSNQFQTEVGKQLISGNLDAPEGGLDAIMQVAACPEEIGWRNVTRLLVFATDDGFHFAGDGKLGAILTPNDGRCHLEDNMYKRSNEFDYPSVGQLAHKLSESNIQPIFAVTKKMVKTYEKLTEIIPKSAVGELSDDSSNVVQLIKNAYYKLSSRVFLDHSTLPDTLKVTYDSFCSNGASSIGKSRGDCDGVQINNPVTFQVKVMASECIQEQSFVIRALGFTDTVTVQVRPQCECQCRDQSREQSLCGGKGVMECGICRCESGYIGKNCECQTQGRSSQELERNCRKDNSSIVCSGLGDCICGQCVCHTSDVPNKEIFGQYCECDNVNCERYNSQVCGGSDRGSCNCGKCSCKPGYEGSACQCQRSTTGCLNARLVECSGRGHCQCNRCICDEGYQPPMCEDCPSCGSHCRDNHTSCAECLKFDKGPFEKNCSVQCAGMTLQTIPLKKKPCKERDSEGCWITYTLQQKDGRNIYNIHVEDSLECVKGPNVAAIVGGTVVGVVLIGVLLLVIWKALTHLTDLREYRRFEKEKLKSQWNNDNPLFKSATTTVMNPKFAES
Kind of data set: 3 hr [111In] In-DANBIRT SPECT/CT imaging of ApoE-/- mice. It counts as in vivo. The note with it: HFD fed mice, 3 hr post injection, baseline, 4th and 8th week, normalized to muscle. As to the method:
(§1) Methods: 6 week ApoE […] mice were fed either normal or high fat chow (n=8 per group) for 8 weeks to induce vascular atherosclerotic lesions. SPECT/CT imaging was performed 3-hrs post injection of ˜700 uCi of ^111In-DANBIRT at baseline, 4 weeks and 8 weeks. Whole body Autoradiography was performed 24-hrs post injection after 8-week time point. Image processing and analysis was performed by region of interest (ROI) determination in relationship to voxel and volume, uptake quantification was normalized to muscle uptake. Blood partition assays were conducted to ascertain specific binding components. […]
Animals were imaged at […] following 700 μCi via tail vein injection of [^111In] […] Regions of Interests (ROI) were determined and drawn using the best quality image phantom from reconstructed CT (Table 3) to determine muscle, adipose, heart, aortic arch and descending aorta organs using VivoQuant 2.00 (inviCRO, Boston, Mass.). […] Concentration and sum per volume normalized to muscle was determined to identify accurate measurements and eliminate ROI signal interference from adjacent tissues. […]

Data set [3] concerns the target T1, LFA-1. The data set can be described thus: 24 hr [111In] In-DANBIRT 3D autoradiography of ApoE-/- mice. It counts as in vivo. As to the method:
as §1
Mice were euthanized by CO2 method after 8 weeks of dietary assessment. […] Autoradiography and white light files were compiled and analyzed using VivoQuant 2.00 (inviCRO, Boston, Mass.). Determined ROI were drawn using the best quality image phantom from reconstructed CT (FIG. 14, Table 3) for the thymus, muscle, carotids and aortic arch. […]

[4] abbreviates: 8 weeks of diet, 3 hours post-injection, p<0.05.

Entries after “also recorded” stand apart in the source; their conditions may differ.

As to `C[C@]1(Cc2ccc(Br)cc2)C(=O)N(c2cc(Cl)cc(Cl)c2)C(=O)N1CCCCNC(=O)CN1CCN2CCN3CCN(CC1)CC(=O)[O][111In]([O]C(=O)C2)[O]C(=O)C3` [[^111In] In-DANBIRT], in data set [1] (setting [4]), the “uptake in RBC and WBC samples, HFD vs normal diet” value is recorded as “increased uptake”; the “uptake in cardiovascular tissues (heart, aorta, carotids), HFD vs normal diet” value was “higher uptake”. In addition, the “% IA/gr of tissue, HFD vs normal diet” value in data set [1] (8 weeks of diet, p<0.05) is given as “increase”. For the same compound, in data set [1] (3 hours post-injection), the “uptake in adipose tissue and muscle” value was “low uptake”. Moreover, the “uptake in serum compared to other blood components” value in data set [1] (3 hours post-injection of 700 μCi) is reported as “high uptake”. The “uptake in liver compared to other tissues” value in data set [1] (3 hours post-injection of 700 μCi, regardless of dietary treatment) was “high uptake”. Further, the “organ bio distribution uptake in liver, serum, aorta and blood components” value in data set [1] (Example 2, 1st cohort) is “significant uptake”. The “uptake in heart, aortic arch and descending aorta ROI (SPECT/CT)” value in data set [2] is reported as “longitudinal increased uptake; also recorded: Increased longitudinal uptake”. In addition, the “uptake in heart, aortic arch and descending aorta ROI (SPECT/CT)” value in data set [2] (listed as 111In-DANBIRT) is listed as “longitudinal increase in uptake”. In data set [3] (24 hr post injection after 8 weeks of diet), the “uptake in carotids and thymus, concentration per volume normalized to muscle, HFD vs normal diet” value is “increase; also recorded: Increased uptake”. Moreover, the “uptake in the thymus” value in data set [3] (Example 1, autoradiography and SPECT/CT analysis) is listed as “Increased uptake”.
